How the values were obtained:
Type in all cases: cell-based
[1] = system: Trichophyton rubrum IFO 9185; experiment: MIC, Sabouraud agar medium containing the compound; details: fungus No. 7, 20° C., 14 days
Method: (§1) In order to test antifungal and bactericidal activity of halo-salicylanilide obtained in above mentioned Examples, following bacteria and fungi are employed.
No. 7 Trichophyton rubrum IFO 9185
(§2) Bacteria No. 1 to No. 4 are respectively cultured in Hart Infusion bouillon medium at 37° C. for 20 hours and resulting medium liquids are employed for said test. Fungi No. 5 to No. 7 are respectively cultured in Sabouraud agar medium and 10^6 cell/ml of cell dispersing liquids obtained from said medium are employed for said test.

[2] = system: Candida albicans ATCC 10259; experiment: MIC, Sabouraud agar medium containing the compound; details: fungus No. 5, 20° C., 14 days
Method: as §1
No. 5 Candida albicans ATCC 10259
as §2

[3] = system: Pseudomonas aeruqinosa NC-5; experiment: MIC, agar medium containing the compound; details: bacterium No. 2, 37° C., 4 hours
Method: as §1
No. 2 Pseudomonas aeruqinosa NC-5
as §2

[4] = system: Escherichia coli NIHJ JC-2; experiment: MIC, agar medium containing the compound; details: bacterium No. 1, 37° C., 4 hours
Method: as §1
No. 1 Escherichia coli NIHJ JC-2
as §2

[5] = system: Aspergillus flavus IFO 8558; experiment: MIC, Sabouraud agar medium containing the compound; details: fungus No. 6, 20° C., 14 days
Method: as §1
No. 6 Aspergillus flavus IFO 8558
as §2

[6] = system: Candida albicans ATCC 10259; experiment: Multiplying state after removal to compound-free medium (scanning electron microscope); details: for multiplying state of the fungi after removal to culture medium without the compound: first cultured in medium containing the compound, then removed, FIG. 1 and FIG. 2
[7] = system: Staphylococcus aureus FDA-209-P; experiment: MIC, agar medium containing the compound; details: bacterium No. 3, 37° C., 4 hours
Method: as §1
No. 3 Staphylococcus aureus FDA-209-P
as §2

[8] = system: bacteria No. 1 to No. 4 and fungi No. 5 to No. 7; experiment: Antifungal and bactericidal activity test, overall assessment of Table 8; details: referring to Table 8
Method: as §1, §2
Referring now to Table 8, in said Examples the halo-salicylanilides provided have respectively remarkable higher antifungal and bactericidal activity than that of the contrasts proposed and said halo-salicylanilidesare especially effective on bacteria No. 3 and No. 4, and fungi No. 5, No. 6 and No. 7. This testifies that alkyl group of 2'-position of the halo-salicylanilides is significant for the activities of the compound. […] Especially the halo-salicylanilides having fluorine in 5-position are very useful for agricultural medicines.

[9] = system: Bacillus subtilis PCI-219; experiment: MIC, agar medium containing the compound; details: bacterium No. 4, 37° C., 4 hours
Method: as §1
No. 4 Bacillus subtilis PCI-219
as §2

O=C(Nc1ccc(Cl)cc1)c1cc(I)cc(I)c1O [Contrast No. 2, reference compound]
MIC (Minimum Inhibitory Concentration) [1]: 50
MIC (Minimum Inhibitory Concentration) [2]: 50
MIC (Minimum Inhibitory Concentration) [3]: > 100
MIC (Minimum Inhibitory Concentration) [4]: > 100
MIC (Minimum Inhibitory Concentration) [5]: > 100
multiplying state of the fungi after removal to culture medium without the compound [6]: again starts to multiply

Cc1cc(Cl)ccc1NC(=O)c1cc(I)ccc1O [compound 3, 5-iodo-2'-methyl-4'-chloro salicylanilide]
MIC (Minimum Inhibitory Concentration) [1]: 6.3
MIC (Minimum Inhibitory Concentration) [7]: 0.75
MIC (Minimum Inhibitory Concentration) [2]: 6.3
antifungal and bactericidal activity (assessment in words) [8]: remarkable antifungal and bactericidal activity
MIC (Minimum Inhibitory Concentration) [4]: > 100
MIC (Minimum Inhibitory Concentration) [9]: 1.5
MIC (Minimum Inhibitory Concentration) [5]: 6.3
multiplying state of the fungi after removal to culture medium without the compound [6]: does not start to multiply
destruction of the cell membranes of the fungi ([6]; scanning electron microscope, FIG. 2): destruction of the cell membranes of the fungi is observed

Cc1cc(Br)ccc1NC(=O)c1cc(I)ccc1O [compound 5, 5-iodo-2'-methyl-4'-bromo salicylanilide]
MIC (Minimum Inhibitory Concentration) [1]: 3.2
MIC (Minimum Inhibitory Concentration) [7]: 0.37
MIC (Minimum Inhibitory Concentration) [2]: 3.2
antifungal and bactericidal activity (assessment in words) [8]: remarkable antifungal and bactericidal activity
MIC (Minimum Inhibitory Concentration) [4]: > 100
MIC (Minimum Inhibitory Concentration) [9]: 0.75
MIC (Minimum Inhibitory Concentration) [5]: 3.2

CCc1cc(Cl)ccc1NC(=O)c1cc(I)ccc1O [compound 6, 5-iodo-2'-ethyl-4'-chloro salicylanilide]
MIC (Minimum Inhibitory Concentration) [1]: 3.2
MIC (Minimum Inhibitory Concentration) [7]: 0.75
MIC (Minimum Inhibitory Concentration) [2]: 6.3
antifungal and bactericidal activity (assessment in words) [8]: remarkable antifungal and bactericidal activity
MIC (Minimum Inhibitory Concentration) [4]: > 100
MIC (Minimum Inhibitory Concentration) [9]: 0.75
MIC (Minimum Inhibitory Concentration) [5]: 3.2

CC(=O)Oc1ccc(I)cc1C(=O)Nc1ccc(Br)cc1C [compound 13, 5-iodo-2'-methyl-4'-bromo acetylsalicylanilide]
MIC (Minimum Inhibitory Concentration) [1]: 12.5
MIC (Minimum Inhibitory Concentration) [7]: 0.2
MIC (Minimum Inhibitory Concentration) [2]: 100
MIC (Minimum Inhibitory Concentration) [3]: 100
antifungal and bactericidal activity (assessment in words) [8]: remarkable antifungal and bactericidal activity
MIC (Minimum Inhibitory Concentration) [4]: > 100
MIC (Minimum Inhibitory Concentration) [9]: 0.4
